Results reported in article PMC7567588 (Science Advances, 2020).
*: point of attachment. ACC = NC(=O)Cc1cc(=O)oc2cc(N*)ccc12

Key:
[1] = tested on: human DUBs in HeLa lysates; assay type: biochemical
human DUB UCH-L3 [2] = molecular target: T1, human DUB UCH-L3 (Homo sapiens, UniProt P15374); assay type: biochemical
SARS-CoV-2 PLpro [3] = molecular target: T2, SARS-CoV-2 PLpro (Severe acute respiratory syndrome coronavirus 2, UniProt P0DTD1)
human DUB UCH-L3 [4] = molecular target: T1, human DUB UCH-L3; assay type: biochemical; remark: listed apart in the source
SARS-CoV-2 PLpro [5] = molecular target: T2, SARS-CoV-2 PLpro; remark: listed apart in the source

T1 sequence (P15374 whole entry, looked up): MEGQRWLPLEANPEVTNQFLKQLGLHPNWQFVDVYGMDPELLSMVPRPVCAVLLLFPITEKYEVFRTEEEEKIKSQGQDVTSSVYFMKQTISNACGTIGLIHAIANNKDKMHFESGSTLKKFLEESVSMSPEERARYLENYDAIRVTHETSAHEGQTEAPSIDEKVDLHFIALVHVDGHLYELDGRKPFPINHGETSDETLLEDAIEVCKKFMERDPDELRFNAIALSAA

Substance	Ub-VME cross-linking profile of HeLa lysates on titration of inhibitor [1]	inhibition of DUB activity (residual activity) (human DUB UCH-L3 [2])	inhibition of DUB activity (residual activity) (SARS-CoV-2 PLpro [3])	substrate recognition (hydrolysis rate, RFU/s) (human DUB UCH-L3 [4])	substrate recognition (hydrolysis rate, RFU/s) (SARS-CoV-2 PLpro [5])
Ac-Abu(Bth)-Dap-Gly-Gly-VME [VIR250]	unaltered	practically no inhibition	robustly inhibit		
Ac-LRGG-{ACC} [Ac-LRGG-ACC]				recognized	recognized
